The text below walks through data of patent publication US5432164A, “C2,N^6 -disubstituted adenosine derivatives” (Novo Nordisk A/S, priority 1991, dated 1995).

Read-outs that look alike come from different tables or passages of the source.

For experiment [1], the system named is A1 receptor. The settings on record: literature, in words; cited from earlier work.
Experiment [2] relates to mice. As to the kind of experiment: DMCM induced seizures in mice, i.p. 30 min (protection against clonic convulsions). It is filed as in vivo, male NMRI mice. The note with it: Mus musculus, ip, 0.5 h, read-out: DMCM-ind. seizures (ED50, mg/kg). As to the method:
DMCM INDUCED SEIZURES IN MICE, I.P.30 min.
DMCM, 15 mg/kg, i.p., clonic convulsions
DMCM is an inverse agonist at the benzodiazepine receptor, presumably producing seizures by decreasing the potency of inhibition of the GABA receptor/benzodiazepine receptor/chloride ionophore complex (1).
15 mg/kg of DMCM dissolved in 0.02N HCl (1 mg/ml) is administered i.p. in a volume of 300 μl to male NMRI mice weighing 20±2 g. This induces two different responses: a) some animals manifest a brief loss of righting reflexes or take up an upright position in which they have a mild short clonus of the upper extremities, b) other animals manifest intense clonic and tonic convulsions of all extremities often followed by death. DMCM is administered 30 min. after an intraperitoneal injection of a test compound. The latency time for the presence of intense clonic and tonic convulsions and death is noted until 15 min. after administration of DMCM. At least 5 doses of each test compound are tested with 8 mice per dose.
This method is described in more detail in Eur. J. Pharmacol. 94, 117-124, 1983.

In experiment [3] the target is T1, adenosine A2 receptor (Rattus norvegicus, UniProt P30543).
T1 construct: from tissue
T1 sequence (P30543 whole entry): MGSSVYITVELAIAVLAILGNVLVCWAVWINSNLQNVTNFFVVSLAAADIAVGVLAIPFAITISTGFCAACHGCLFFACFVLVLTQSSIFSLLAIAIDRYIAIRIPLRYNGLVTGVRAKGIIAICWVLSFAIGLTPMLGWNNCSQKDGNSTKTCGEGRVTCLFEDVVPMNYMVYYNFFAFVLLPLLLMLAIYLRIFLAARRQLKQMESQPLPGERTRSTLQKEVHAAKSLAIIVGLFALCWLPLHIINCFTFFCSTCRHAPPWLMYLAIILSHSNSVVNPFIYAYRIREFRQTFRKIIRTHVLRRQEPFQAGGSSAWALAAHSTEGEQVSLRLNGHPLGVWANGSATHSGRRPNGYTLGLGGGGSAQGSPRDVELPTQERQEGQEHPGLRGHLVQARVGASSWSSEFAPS
As to the kind of experiment: In vitro binding to adenosine A2 receptor, radioligand [3H]-CGS 21680. The source says: (§1) Evaluation of in vitro binding to adenosine A1 and A2 receptors.

The target of experiment [4] is T2, adenosine A1 receptor (Rattus norvegicus, UniProt P25099).
T2 construct: from tissue
T2 sequence (P25099 1-326): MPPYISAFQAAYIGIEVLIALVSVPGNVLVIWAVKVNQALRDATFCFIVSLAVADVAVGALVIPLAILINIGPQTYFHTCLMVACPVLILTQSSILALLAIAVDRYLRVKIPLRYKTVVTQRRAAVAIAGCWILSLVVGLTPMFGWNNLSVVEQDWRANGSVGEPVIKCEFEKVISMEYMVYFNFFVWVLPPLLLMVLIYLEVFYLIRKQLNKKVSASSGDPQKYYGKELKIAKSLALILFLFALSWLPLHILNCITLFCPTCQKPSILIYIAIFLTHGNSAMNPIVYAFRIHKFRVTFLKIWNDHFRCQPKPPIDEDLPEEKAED
Briefly: In vitro binding to adenosine A1 receptor, radioligand [3H]-L-PIA. The note with it: for Ki: [3H]-L-PIA radioligand; for Ratio A2/A1: ratio of Ki A2/A1.
Source text: as §1

The mark [5] stands for this setting: mice, test compound i.p. 30 min before DMCM 15 mg/kg i.p., dose protecting 50% against clonic convulsions.
Setting [6] is: [3H]-CGS 21680 radioligand, read-out: A2 Receptor Binding (Ki).

As for `OC[C@H]1O[C@@H](n2cnc3c(NC4CCCC4)nc(Cl)nc32)[C@H](O)[C@@H]1O` [2-chloro-N-cyclopentyladenosine], the “selectivity for the A1 receptor over the A2 receptor” value in experiment [1] is listed as “most selective for the A1 receptor over the A2 receptor”.

Consider `OC[C@H]1O[C@@H](n2cnc3c(NC4CCCC4)ncnc32)[C@H](O)[C@@H]1O` [CPA, N-(cyclopentyl)adenosine, reference compound], for which the ED50 in experiment [2] turned out to be 0.2 mg/kg. In experiment [3], the affinity corresponds to a Ki of 173 nM.

Take `OC[C@H]1O[C@@H](n2cnc3c(NN4CCCCC4)nc(Cl)nc32)[C@H](O)[C@@H]1O` [Example 5, 2-Chloro-N-(1-piperidinyl)adenosine]: in experiment [4], the Ki – broadly, a measure of affinity in units of concentration, obtained from inhibition or displacement – turned out to be 4 nM and the “Ratio A2/A1” value is reported as 173. Moreover, the ED50 in experiment [2] (setting [5]) worked out at 0.1 mg/kg. Besides, the Ki in experiment [3] (setting [6]) worked out at 691 nM.

Consider `OC[C@H]1O[C@@H](n2cnc3c(NN4CCCCC4)nc(F)nc32)[C@H](O)[C@@H]1O` [Example 9, 2-Fluoro-N-(1-piperidinyl)adenosine], for which, in experiment [4], the affinity corresponds to a Ki of 4 nM and the “Ratio A2/A1” value is given as 289. In experiment [2] (setting [5]), the ED50 stood at 0.7 mg/kg. In addition, in experiment [3] (setting [6]), the Ki was found to be 1140 nM.

For `OC[C@H]1O[C@@H](n2cnc3c(NN4CCCC(Oc5ccccc5)C4)nc(Cl)nc32)[C@H](O)[C@@H]1O` (stereo partly shown) [Example 16, 2-Chloro-N-(3-phenoxy-1-piperidinyl)adenosine], in experiment [4], the Ki is 11 nM and the “Ratio A2/A1” value was found to be 158. The ED50 in experiment [2] (setting [5]) came to 1 mg/kg. Moreover, in experiment [3] (setting [6]), the Ki was 1730 nM.

Consider `OC[C@H]1O[C@@H](n2cnc3c(NN4CCC(Oc5ccccc5)CC4)nc(Cl)nc32)[C@H](O)[C@@H]1O` [Example 17, 2-Chloro-N-[4-phenoxy-1-piperidinyl]adenosine], for which the “Ratio A2/A1” value in experiment [4] turned out to be 857. Also, the ED50 in experiment [2] (setting [5]) amounted to 0.9 mg/kg. Moreover, the Ki in experiment [3] (setting [6]) came to 1200 nM.

`CC(Cc1ccccc1)Nc1ncnc2c1ncn2[C@@H]1O[C@H](CO)[C@@H](O)[C@H]1O` (stereo partly drawn) [L-PIA, N-(1-phenyl-2-propyl)adenosine, reference compound]: the ED50 in experiment [2] was 0.1 mg/kg.
